Measured values reported in paper PMC8920929 (The Journal of Biological Chemistry, 2022).
Where a chain is given by its changes, count along the chain named.

What was measured:
human TRPV3 = biological target: T1, human TRPV3 (Homo sapiens, UniProt Q8NET8); experiment: Inside-out single channel recordings of TRPV3; assay type: biochemical
T1 sequence (Q8NET8 1-790): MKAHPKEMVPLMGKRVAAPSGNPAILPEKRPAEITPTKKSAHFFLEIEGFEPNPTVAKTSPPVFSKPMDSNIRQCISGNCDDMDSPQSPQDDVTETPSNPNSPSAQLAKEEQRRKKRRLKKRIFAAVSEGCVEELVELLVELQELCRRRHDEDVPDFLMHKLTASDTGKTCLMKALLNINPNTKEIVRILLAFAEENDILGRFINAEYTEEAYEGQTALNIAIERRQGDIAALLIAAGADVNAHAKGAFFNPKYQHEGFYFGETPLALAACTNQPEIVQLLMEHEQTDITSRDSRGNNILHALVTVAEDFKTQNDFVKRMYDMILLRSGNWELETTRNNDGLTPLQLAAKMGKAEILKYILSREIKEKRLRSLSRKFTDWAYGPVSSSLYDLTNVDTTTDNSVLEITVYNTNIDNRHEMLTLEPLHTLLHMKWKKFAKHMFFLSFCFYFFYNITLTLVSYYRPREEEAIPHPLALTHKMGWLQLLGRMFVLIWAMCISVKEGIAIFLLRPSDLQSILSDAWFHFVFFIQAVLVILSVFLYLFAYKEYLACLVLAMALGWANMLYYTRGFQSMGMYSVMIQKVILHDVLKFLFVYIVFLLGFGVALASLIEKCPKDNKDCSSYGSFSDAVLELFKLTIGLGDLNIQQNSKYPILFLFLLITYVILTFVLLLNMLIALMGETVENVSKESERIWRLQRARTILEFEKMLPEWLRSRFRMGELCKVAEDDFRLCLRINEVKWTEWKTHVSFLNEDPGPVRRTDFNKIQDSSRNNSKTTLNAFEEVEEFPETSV

TRPV3 [1] = conditions: ref [38]; cited from earlier work
TRPV3-L508F = biological target: T2, TRPV3-L508F (Homo sapiens, UniProt Q8NET8, L508F); experiment: Whole-cell and single-channel recordings of the TRPV3-L508F mutant; assay type: cell-based; conditions: carvacrol 0.3-3.0 mM or 50 μM 2-APB
T2 sequence (Q8NET8 1-790 L508F): T1 sequence (Q8NET8 1-790) with L508F

TRPV3-L508A = biological target: T3, TRPV3-L508A (Homo sapiens, UniProt Q8NET8, L508A); experiment: Whole-cell and single-channel recordings of the TRPV3-L508A mutant; assay type: cell-based; conditions: carvacrol 0.3-3.0 mM or 50 μM 2-APB
T3 sequence (Q8NET8 1-790 L508A): T1 sequence (Q8NET8 1-790) with L508A

TRPV3-F524A = TRPV3-F524A (Homo sapiens, UniProt Q8NET8, F524A); conditions: 50 μM 2-APB; the mutant also lost surface expression
TRPV3-I505A = biological target: T4, TRPV3-I505A (Homo sapiens, UniProt Q8NET8, I505A); experiment: Whole-cell and single-channel recordings of the TRPV3-I505A mutant; assay type: cell-based; conditions: carvacrol 0.3-3.0 mM or 50 μM 2-APB
T4 sequence (Q8NET8 1-790 I505A): T1 sequence (Q8NET8 1-790) with I505A

TRPV3 [2] = conditions: ref [30], cited from earlier work; for TRPV3 currents induced: in comparison with carvacrol
keratinocytes = conditions: ref [35]; cited from earlier work
mice = conditions: ref [35]; cited from earlier work
[3] = +80 mV, carvacrol 300 μM or 2-APB 50 μM alone
[4] = FB 50 μM in the presence of 50 μM 2-APB, +80 mV
[5] = FB 50 μM in the presence of 300 μM carvacrol, +80 mV

Sequence of TRPV3-F524A (Q8NET8 whole entry F524A): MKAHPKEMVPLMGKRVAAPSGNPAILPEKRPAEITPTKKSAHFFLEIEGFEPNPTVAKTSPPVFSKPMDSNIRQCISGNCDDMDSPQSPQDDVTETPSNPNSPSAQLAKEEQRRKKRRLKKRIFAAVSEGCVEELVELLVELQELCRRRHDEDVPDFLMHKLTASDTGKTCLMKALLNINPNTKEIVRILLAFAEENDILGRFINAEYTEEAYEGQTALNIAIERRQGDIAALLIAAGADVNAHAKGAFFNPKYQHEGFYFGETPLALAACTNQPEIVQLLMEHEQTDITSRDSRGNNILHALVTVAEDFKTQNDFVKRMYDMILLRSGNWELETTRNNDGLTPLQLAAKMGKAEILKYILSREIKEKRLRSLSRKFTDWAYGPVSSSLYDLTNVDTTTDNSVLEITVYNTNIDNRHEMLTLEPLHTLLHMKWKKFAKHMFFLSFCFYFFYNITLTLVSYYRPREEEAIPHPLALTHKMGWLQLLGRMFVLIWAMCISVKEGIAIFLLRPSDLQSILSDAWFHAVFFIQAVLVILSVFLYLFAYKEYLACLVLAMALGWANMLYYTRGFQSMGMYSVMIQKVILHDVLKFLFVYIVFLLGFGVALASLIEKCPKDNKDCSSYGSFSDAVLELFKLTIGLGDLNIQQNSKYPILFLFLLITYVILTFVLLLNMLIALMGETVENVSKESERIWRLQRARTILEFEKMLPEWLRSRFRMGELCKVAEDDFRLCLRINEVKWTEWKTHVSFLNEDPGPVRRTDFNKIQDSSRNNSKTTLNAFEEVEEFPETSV

NCCOB(c1ccccc1)c1ccccc1 [2-APB, 2-aminoethyl diphenylborinate]
single-channel open frequency (Freq) (human TRPV3; [3]): 65.48 ± 12.31 Hz
single-channel open probability (Po) (human TRPV3; [3]): 0.77 ± 0.07
unitary conductance of TRPV3 single channels (human TRPV3; inside-out patches, -80 mV to +80 mV, carvacrol 300 μM, 2-APB 50 μM, n = 4): 173.2 ± 5.3 pS
unitary conductance, 2-APB in the absence of dyclonine (TRPV3 [1]): 163.6 ± 6.4 pS
unitary conductance, 2-APB in the presence of TRPV3 inhibitor dyclonine (TRPV3 [1]): 179.2 ± 5.5 pS
activation of TRPV3 L508F mutant channel (TRPV3-L508F): but not 2-APB
activation of TRPV3 L508A mutant channel (TRPV3-L508A): still able to activate the mutant channel
sensitivity of TRPV3 F524A mutant channel (TRPV3-F524A): reduced sensitivity
activation of TRPV3 I505A mutant channel (TRPV3-I505A): intact activation

CC12CCC(CC1=O)C2(C)C (stereo not drawn) [camphor]
EC50 (TRPV3 [2]; read-out: EC50, activation of TRPV3, [32]): ~6 mM

Cc1ccc(C(C)C)cc1 [p-Cymene]
TRPV3 currents induced (TRPV3 [2]): small or negligible

Cc1ccc(C)c(O)c1 [p-Xylenol]
TRPV3 currents induced (TRPV3 [2]): small or negligible

forsythoside B [FB]
Po after addition of inhibitor, 2-APB-activated channels (human TRPV3; [4]): 0.12 ± 0.08
open Freq after addition of inhibitor, 2-APB-activated channels (human TRPV3; [4]): 20.07 ± 1.77 Hz
Po after addition of inhibitor, carvacrol-activated channels (human TRPV3; [5]): 0.12 ± 0.03
open Freq after addition of inhibitor, carvacrol-activated channels (human TRPV3; [5]): 21.78 ± 2.59 Hz
effect on carvacrol-induced cytotoxicity of keratinocytes (keratinocytes): attenuates
effect on carvacrol-induced pruritus (mice): attenuates pruritus
